Reference: US11339130B1 (Blade Therapeutics, Inc., priority 2016, dated 2022)

Assays:
Assay type in all cases: biochemical
[1] = biological target: T1, Human Calpain 1/NS1 (Homo sapiens, UniProt P07384); experiment: Calpain inhibition continuous fluorescence (FRET) assay, Human Calpain 1/NS1; conditions: Column A; read-out: Human Calpain 1/NS1 IC50
T1 sequence (P07384 1-714): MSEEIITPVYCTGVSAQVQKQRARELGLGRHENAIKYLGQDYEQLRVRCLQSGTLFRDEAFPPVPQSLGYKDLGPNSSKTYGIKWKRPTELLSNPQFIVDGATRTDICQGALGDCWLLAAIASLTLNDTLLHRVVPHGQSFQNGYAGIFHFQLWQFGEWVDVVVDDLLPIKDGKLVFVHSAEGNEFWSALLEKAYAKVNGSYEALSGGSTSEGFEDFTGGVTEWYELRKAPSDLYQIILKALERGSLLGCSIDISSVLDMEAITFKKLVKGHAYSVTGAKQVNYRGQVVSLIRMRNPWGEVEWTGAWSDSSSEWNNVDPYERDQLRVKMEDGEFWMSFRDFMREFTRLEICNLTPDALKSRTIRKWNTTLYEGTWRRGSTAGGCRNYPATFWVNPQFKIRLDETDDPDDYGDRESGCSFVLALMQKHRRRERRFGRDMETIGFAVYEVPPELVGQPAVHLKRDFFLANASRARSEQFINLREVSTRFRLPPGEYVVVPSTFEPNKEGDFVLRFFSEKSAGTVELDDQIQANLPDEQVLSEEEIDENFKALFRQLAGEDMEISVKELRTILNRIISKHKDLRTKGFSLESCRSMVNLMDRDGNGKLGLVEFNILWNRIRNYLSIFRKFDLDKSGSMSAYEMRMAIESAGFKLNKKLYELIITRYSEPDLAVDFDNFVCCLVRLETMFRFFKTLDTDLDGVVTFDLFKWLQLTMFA
T1 sequence (P04632 1-268 partner): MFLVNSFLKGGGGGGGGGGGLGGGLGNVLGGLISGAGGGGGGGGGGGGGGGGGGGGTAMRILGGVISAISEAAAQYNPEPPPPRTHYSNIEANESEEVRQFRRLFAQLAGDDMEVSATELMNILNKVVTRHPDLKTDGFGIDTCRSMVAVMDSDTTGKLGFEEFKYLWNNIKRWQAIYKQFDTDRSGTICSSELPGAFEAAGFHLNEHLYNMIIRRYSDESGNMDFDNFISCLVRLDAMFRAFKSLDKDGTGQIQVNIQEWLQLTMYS
In short: (§1)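 Calpain activity is measured kinetically with a quenched FRET peptide in 50 mM Tris pH 7.5, 100 mM NaCl, 1 mM DTT, with CaCl2 triggering activation. Rates over 1-5 min are plotted against log inhibitor to obtain IC50 by 4-parameter logistic fitting.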

[2] = biological target: T2, Human Calpain 2/NS1 (Homo sapiens, UniProt P17655); experiment: Calpain inhibition continuous fluorescence (FRET) assay, Human Calpain 2/NS1; conditions: Column B; read-out: Human Calpain 2/NS1 IC50
T2 sequence (P17655 1-700): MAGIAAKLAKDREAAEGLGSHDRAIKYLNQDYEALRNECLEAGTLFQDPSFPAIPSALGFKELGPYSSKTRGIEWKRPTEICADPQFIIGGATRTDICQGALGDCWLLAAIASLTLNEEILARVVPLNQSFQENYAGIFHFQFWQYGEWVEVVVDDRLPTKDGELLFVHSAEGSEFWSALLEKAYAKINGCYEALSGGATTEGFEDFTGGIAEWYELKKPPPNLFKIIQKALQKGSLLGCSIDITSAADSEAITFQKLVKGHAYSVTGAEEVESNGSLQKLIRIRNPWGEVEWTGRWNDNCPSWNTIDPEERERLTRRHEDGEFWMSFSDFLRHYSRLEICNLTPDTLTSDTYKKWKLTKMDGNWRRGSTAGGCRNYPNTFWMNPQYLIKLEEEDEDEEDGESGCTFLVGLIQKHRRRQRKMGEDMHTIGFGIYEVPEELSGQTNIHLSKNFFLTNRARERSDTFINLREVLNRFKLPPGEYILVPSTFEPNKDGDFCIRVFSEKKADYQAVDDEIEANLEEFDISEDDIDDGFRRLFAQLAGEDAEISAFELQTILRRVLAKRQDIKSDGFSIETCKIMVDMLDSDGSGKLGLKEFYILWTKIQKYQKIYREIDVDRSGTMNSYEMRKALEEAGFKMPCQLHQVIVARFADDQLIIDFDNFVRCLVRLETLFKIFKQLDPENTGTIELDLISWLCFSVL
T2 sequence (P04632 1-268 partner): T1 sequence (P04632 1-268 partner)
In short: as §1

[3] = biological target: T3, Human Calpain 9/NS1 (Homo sapiens, UniProt O14815); experiment: Calpain inhibition continuous fluorescence (FRET) assay, Human Calpain 9/NS1; conditions: Column C; read-out: Human Calpain 9/NS1 IC50
T3 sequence (O14815 1-690): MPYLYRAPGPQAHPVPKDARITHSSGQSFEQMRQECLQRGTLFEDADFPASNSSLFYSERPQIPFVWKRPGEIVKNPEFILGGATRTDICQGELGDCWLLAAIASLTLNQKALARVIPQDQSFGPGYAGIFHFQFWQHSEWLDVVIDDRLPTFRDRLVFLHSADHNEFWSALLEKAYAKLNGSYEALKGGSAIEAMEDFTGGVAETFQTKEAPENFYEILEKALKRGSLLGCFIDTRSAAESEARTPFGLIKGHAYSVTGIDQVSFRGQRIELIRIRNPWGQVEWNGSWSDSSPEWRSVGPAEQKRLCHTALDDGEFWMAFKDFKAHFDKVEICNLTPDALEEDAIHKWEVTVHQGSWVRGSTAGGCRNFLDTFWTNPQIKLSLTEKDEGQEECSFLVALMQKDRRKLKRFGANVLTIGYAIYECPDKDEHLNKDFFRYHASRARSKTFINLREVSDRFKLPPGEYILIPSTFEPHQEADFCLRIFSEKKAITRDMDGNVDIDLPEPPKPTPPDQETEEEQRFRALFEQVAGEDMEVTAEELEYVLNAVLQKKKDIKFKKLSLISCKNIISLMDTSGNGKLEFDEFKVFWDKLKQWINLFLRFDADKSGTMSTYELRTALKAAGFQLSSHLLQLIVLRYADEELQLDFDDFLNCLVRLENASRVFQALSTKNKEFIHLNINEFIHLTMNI
T3 sequence (P04632 1-268 partner): T1 sequence (P04632 1-268 partner)
In short: as §1

SMILES | IC50 [1] | IC50 [2] | IC50 [3]
O=C[C@H](Cc1ccccc1)NC(=O)c1cncn1-c1nc2ccccc2[nH]1 [Compound 90, (S)-1-(1H-benzo[d]imidazol-2-yl)-N-(1-oxo-3-phenylpropan-2-yl)-1H-imidazole-5-carboxamide] | < 3 µM | < 3 µM | 3 to 10 µM
O=C[C@H](Cc1ccccc1)NC(=O)c1cccc2nc(-c3ccccc3)[nH]c12 [Compound 92, (S)—N-(1-oxo-3-phenylpropan-2-yl)-2-phenyl-1H-benzo[D]imidazole-7-carboxamide] | 3 to 10 µM | 3 to 10 µM | < 3 µM
C=CCOc1ccc(C[C@@H](C=O)NC(=O)c2cc(C)nn2-c2ccccn2)cc1 [Compound 93, (S)—N-(1-(4-(allyloxy)phenyl)-3-oxopropan-2-yl)-3-methyl-1-(pyridin-2-yl)-1H-pyrazole-5-carboxamide] | < 3 µM | < 3 µM | < 3 µM
Cc1noc(-c2ccccc2)c1C(=O)N[C@@H](Cc1ccccc1)C(=O)C(=O)NC1CC1 [Compound 100, (S)—N-(4-(cyclopropylamino)-3,4-dioxo-1-phenylbutan-2-yl)-3-methyl-5-phenylisoxazole-4-carboxamide] | < 3 µM | < 3 µM | < 3 µM
Cc1noc(-c2ccccc2)c1C(=O)N[C@@H](Cc1ccccc1)C(=O)C(=O)NCc1ccc(Cl)c(Cl)c1 [Compound 101, (S)—N-(4-((3,4-dichlorobenzyl)amino)-3,4-dioxo-1-phenylbutan-2-yl)-3-methyl-5-phenylisoxazole-4-carboxamide] | > 10 µM | > 10 µM | > 10 µM
NC(=O)C(=O)[C@H](Cc1ccccc1)NC(=O)c1occc1-c1ccccc1 [Compound 104, (S)—N-(4-amino-3,4-dioxo-1-phenylbutan-2-yl)-3-phenylfuran-2-carboxamide] | < 3 µM | < 3 µM | < 3 µM
Cc1cc(C(=O)N[C@@H](Cc2ccccc2)C(=O)C(N)=O)n(-c2cccc3ncccc23)n1 [Compound 108, (S)—N-(4-amino-3,4-dioxo-1-phenylbutan-2-yl)-3-methyl-1-(quinolin-5-yl)-1H-pyrazole-5-carboxamide] | < 3 µM | < 3 µM | < 3 µM
Cc1cc(C(=O)N[C@@H](Cc2ccccc2)C(=O)C(N)=O)nn1-c1ncc(-c2ccccc2)s1 [Compound 115, (S)—N-(4-amino-3,4-dioxo-1-phenylbutan-2-yl)-5-methyl-1-(5-phenylthiazol-2-yl)-1H-pyrazole-3-carboxamide] | > 10 µM | < 3 µM | > 10 µM

Further lines, results first:

IC50 [1] | IC50 [2] | IC50 [3] | SMILES
< 3 µM | < 3 µM | < 3 µM | NC(=O)C(=O)[C@H](Cc1ccccc1)NC(=O)c1cncn1-c1cc(-c2ncco2)ccn1 [Compound 88, (S)—N-(4-amino-3,4-dioxo-1-phenylbutan-2-yl)-1-(4-(oxazol-2-yl)pyridin-2-yl)-1H-imidazole-5-carboxamide]
< 3 µM | < 3 µM | 3 to 10 µM | O=C(NC1CC1)C(=O)[C@H](Cc1ccccc1)NC(=O)c1cncn1-c1ccc(-c2ncco2)cn1 [Compound 89, (S)—N-(4-(cyclopropylamino)-3,4-dioxo-1-phenylbutan-2-yl)-1-(5-(oxazol-2-yl)pyridin-2-yl)-1H-imidazole-5-carboxamide]
3 to 10 µM | < 3 µM | 3 to 10 µM | O=C[C@H](Cc1ccccc1)NC(=O)c1cncs1 [Compound 91, (S)—N-(1-oxo-3-phenylpropan-2-yl)thiazole-5-carboxamide]
< 3 µM | < 3 µM | < 3 µM | Cn1nc(-c2ccccc2)c(C(=O)N[C@@H](Cc2ccccc2)C(=O)C(N)=O)c1Cl [Compound 94, (S)—N-(4-amino-3,4-dioxo-1-phenylbutan-2-yl)-5-chloro-1-methyl-3-phenyl-1H-pyrazole-4-carboxamide]
< 3 µM | < 3 µM | < 3 µM | Cc1nsc(-c2ccccc2)c1C(=O)N[C@@H](Cc1ccccc1)C(=O)C(N)=O [Compound 96, (S)—N-(4-amino-3,4-dioxo-1-phenylbutan-2-yl)-3-methyl-5-phenylisothiazole-4-carboxamide]
< 3 µM | < 3 µM | < 3 µM | Cc1cc(C)cc(C[C@H](NC(=O)c2c(C)noc2-c2ccccc2)C(=O)C(N)=O)c1 [Compound 97, (S)—N-(4-amino-1-(3,5-dimethylphenyl)-3,4-dioxobutan-2-yl)-3-methyl-5-phenylisoxazole-4-carboxamide]
< 3 µM | < 3 µM | < 3 µM | O=C[C@H](Cc1ccccc1)NC(=O)c1cncn1-c1n[nH]c2ccccc12 [Compound 102, (S)-1-(1H-indazol-3-yl)-N-(1-oxo-3-phenylpropan-2-yl)-1H-imidazole-5-carboxamide]
< 3 µM | < 3 µM | < 3 µM | NC(=O)C(=O)[C@H](Cc1ccccc1)NC(=O)c1scnc1-c1ccccn1 [Compound 109, (S)—N-(4-amino-3,4-dioxo-1-phenylbutan-2-yl)-4-(pyridin-2-yl)thiazole-5-carboxamide]
< 3 µM | < 3 µM | 3 to 10 µM | O=C[C@H](Cc1ccccc1)NC(=O)c1cncn1-c1cc(-c2ncco2)ccn1 [Compound 110, (S)-1-(4-(oxazol-2-yl)pyridin-2-yl)-N-(1-oxo-3-phenylpropan-2-yl)-1H-imidazole-5-carboxamide]
< 3 µM | < 3 µM | < 3 µM | O=C[C@H](Cc1ccccc1)NC(=O)c1cncn1-c1ccc(-c2ncco2)cn1 [Compound 111, (S)-1-(5-(oxazol-2-yl)pyridin-2-yl)-N-(1-oxo-3-phenylpropan-2-yl)-1H-imidazole-5-carboxamide]
3 to 10 µM | < 3 µM | 3 to 10 µM | Cc1cc(C(=O)N[C@@H](Cc2ccccc2)C(=O)C(N)=O)nn1-c1ncc(-c2ccccc2)o1 [Compound 114, (S)—N-(4-amino-3,4-dioxo-1-phenylbutan-2-yl)-5-methyl-1-(5-phenyloxazol-2-yl)-1H-pyrazole-3-carboxamide]
